According to ChEMBL document CHEMBL4311942, “Design of Trp-Rich Dodecapeptides with Broad-Spectrum Antimicrobial Potency and Membrane-Disruptive Mechanism” (J Med Chem, 2019):
Values after ≈ are worked out from the molar mass of the structure shown. Where a SMILES comes first, the peptide text is derived from it.

Key:
[1] = test system: Escherichia coli; assay: Antibacterial activity against Escherichia coli ATCC 25922 incubated for 18 to 24 hrs by broth microdilution method; type: functional
[2] = test system: Escherichia coli; assay: Antibacterial activity against Escherichia coli UB1005 incubated for 18 to 24 hrs by broth microdilution method; type: functional
[3] = Therapeutic index, ratio of MHC for human RBC to geometric mean of peptide MIC for Escherichia coli ATCC 25922; type: toxicity; details: pooled result: one value given for 6 cell lines, strains, targets or settings, read-out: TI
[4] = test system: Salmonella typhimurium; assay: Antibacterial activity against Salmonella enterica serovar typhimurium C77-31 incubated for 18 to 24 hrs by broth microdilution method; type: functional, Salmonella enterica subsp. enterica serovar Typhimurium
[5] = test system: Staphylococcus epidermidis; assay: Antibacterial activity against Staphylococcus epidermidis ATCC 12228 incubated for 18 to 24 hrs by broth microdilution method; type: functional
[6] = test system: Staphylococcus aureus; assay: Antibacterial activity against Staphylococcus aureus ATCC 29213 incubated for 18 to 24 hrs by broth microdilution method; type: functional
[7] = test system: Staphylococcus aureus; assay: Antibacterial activity against Staphylococcus aureus ATCC 25923 incubated for 18 to 24 hrs by broth microdilution method; type: functional
[8] = Cytotoxicity against mouse RAW264.7 cells assessed as cell survival at <= 32 uM after 24 hrs by MTT assay relative to control; type: cell-based; details: RAW264.7 cells, up to 32 µM, read-out: Activity
[9] = test system: Erythrocyte; assay: Haemolytic activity in human erythrocytes assessed as lowest concentration causing 5% hemolysis after 1 hr; type: ADME, cell-based
[10] = test system: Pseudomonas aeruginosa; assay: Antibacterial activity against Pseudomonas aeruginosa 25349 clinical isolate incubated for 18 to 24 hrs by broth microdilution method; type: functional
[11] = test system: Staphylococcus aureus; assay: Antibacterial activity against Staphylococcus aureus 11011 incubated for 18 to 24 hrs by broth microdilution method; type: functional
[12] = test system: Acinetobacter baumannii; assay: Antibacterial activity against Acinetobacter baumannii AB1901 clinical isolate incubated for 18 to 24 hrs by broth microdilution method; type: functional
[13] = test system: Acinetobacter baumannii; assay: Antibacterial activity against Acinetobacter baumannii AB1902 clinical isolate incubated for 18 to 24 hrs by broth microdilution method; type: functional
[14] = test system: Escherichia coli; assay: Antibacterial activity against Escherichia coli 20411 clinical isolate incubated for 18 to 24 hrs by broth microdilution method; type: functional
[15] = Cytotoxicity against mouse RAW264.7 cells assessed as cell survival at < 32 uM after 24 hrs by MTT assay; type: cell-based; details: read-out: Activity

SMILES	MIC [1] [µM]	MIC [2] [µM]	selectivity ratio [3]	MIC [4] [µM]	MIC [5] [µM]	MIC [6] [µM]	MIC [7] [µM]	viability at 24 h [8] [%]	MHC [9] [µM]	MIC [10] [µM]	MIC [11] [µM]	MIC [12] [µM]	MIC [13] [µM]	MIC [14] [µM]	viability at 24 h [15] [%]
CC(C)C[C@H](NC(=O)[C@H](CCCNC(=N)N)NC(=O)[C@H](CCCCN)NC(=O)[C@H](Cc1c[nH]c2ccccc12)NC(=O)[C@@H](NC(=O)[C@H](CCCCN)NC(=O)[C@H](CCCCN)NC(=O)[C@H](CCCNC(=N)N)NC(=O)[C@H](CC(C)C)NC(=O)[C@H](CCCNC(=N)N)NC(=O)[C@@H](N)CCCNC(=N)N)[C@@H](C)O)C(=O)N[C@@H](Cc1c[nH]c2ccccc12)C(N)=O (H-RRLRKKTWKRLW-NH2)	16 (≈ 27.6 µg/mL)	32 (≈ 55.2 µg/mL)	4.49	64 (≈ 110 µg/mL)	64 (≈ 110 µg/mL)	64 (≈ 110 µg/mL)	> 128	≥ 70	> 128	–	–	–	–	–	–
CC(C)C[C@H](NC(=O)[C@H](CCCNC(=N)N)NC(=O)[C@H](CCCCN)NC(=O)[C@H](Cc1c[nH]c2ccccc12)NC(=O)[C@@H](NC(=O)[C@H](CCCCN)NC(=O)[C@H](CCCCN)NC(=O)[C@H](Cc1c[nH]c2ccccc12)NC(=O)[C@H](CC(C)C)NC(=O)[C@H](CCCNC(=N)N)NC(=O)[C@@H](N)CCCNC(=N)N)[C@@H](C)O)C(=O)N[C@@H](Cc1c[nH]c2ccccc12)C(N)=O (H-RRLWKKTWKRLW-NH2)	4 (≈ 7.02 µg/mL)	4 (≈ 7.02 µg/mL)	35.9	8 (≈ 14 µg/mL)	8 (≈ 14 µg/mL)	8 (≈ 14 µg/mL)	16 (≈ 28.1 µg/mL)	≥ 70	> 128	–	–	–	–	–	–
CC(C)C[C@H](NC(=O)[C@H](CCCNC(=N)N)NC(=O)[C@H](Cc1c[nH]c2ccccc12)NC(=O)[C@H](CCCNC(=N)N)NC(=O)[C@@H](NC(=O)[C@H](CCCCN)NC(=O)[C@H](Cc1c[nH]c2ccccc12)NC(=O)[C@H](CCCNC(=N)N)NC(=O)[C@H](CC(C)C)NC(=O)[C@H](Cc1c[nH]c2ccccc12)NC(=O)[C@@H](N)CCCNC(=N)N)[C@@H](C)O)C(=O)N[C@@H](CCCCN)C(N)=O (H-RWLRWKTRWRLK-NH2)	2 (≈ 3.57 µg/mL)	4 (≈ 7.14 µg/mL)	40.3	8 (≈ 14.3 µg/mL)	16 (≈ 28.5 µg/mL)	4 (≈ 7.14 µg/mL)	16 (≈ 28.5 µg/mL)	≥ 70	> 128	–	–	–	–	–	–
CC(C)C[C@H](NC(=O)[C@H](CCCNC(=N)N)NC(=O)[C@H](Cc1c[nH]c2ccccc12)NC(=O)[C@H](CCCNC(=N)N)NC(=O)[C@@H](NC(=O)[C@H](CCCCN)NC(=O)[C@H](Cc1c[nH]c2ccccc12)NC(=O)[C@H](CCCNC(=N)N)NC(=O)[C@H](CC(C)C)NC(=O)[C@H](CCCNC(=N)N)NC(=O)[C@@H](N)CCCNC(=N)N)[C@@H](C)O)C(=O)N[C@@H](CCCCN)C(N)=O (H-RRLRWKTRWRLK-NH2)	16 (≈ 28.1 µg/mL)	4 (≈ 7.02 µg/mL)	18	32 (≈ 56.1 µg/mL)	16 (≈ 28.1 µg/mL)	16 (≈ 28.1 µg/mL)	16 (≈ 28.1 µg/mL)	≥ 70	> 128	–	–	–	–	–	–
CC(C)C[C@H](NC(=O)[C@H](CCCNC(=N)N)NC(=O)[C@H](CCCCN)NC(=O)[C@H](CCCNC(=N)N)NC(=O)[C@@H](NC(=O)[C@H](Cc1c[nH]c2ccccc12)NC(=O)[C@H](CCCCN)NC(=O)[C@H](CCCNC(=N)N)NC(=O)[C@H](CC(C)C)NC(=O)[C@H](Cc1c[nH]c2ccccc12)NC(=O)[C@@H](N)CCCNC(=N)N)[C@@H](C)O)C(=O)N[C@@H](CCCCN)C(N)=O (H-RWLRKWTRKRLK-NH2)	16 (≈ 27.6 µg/mL)	16 (≈ 27.6 µg/mL)	8.98	64 (≈ 110 µg/mL)	16 (≈ 27.6 µg/mL)	64 (≈ 110 µg/mL)	32 (≈ 55.2 µg/mL)	≥ 70	> 128	–	–	–	–	–	–
CC(C)C[C@H](NC(=O)[C@H](CCCNC(=N)N)NC(=O)[C@@H](NC(=O)[C@H](CCCNC(=N)N)NC(=O)[C@@H](NC(=O)[C@H](CCCCN)NC(=O)[C@@H](NC(=O)[C@H](CCCNC(=N)N)NC(=O)[C@H](CC(C)C)NC(=O)[C@H](CCCNC(=N)N)NC(=O)[C@@H](N)C(C)C)C(C)C)[C@@H](C)O)C(C)C)C(=O)N[C@@H](CCCCN)C(N)=O (H-VRLRVKTRVRLK-NH2)	4 (≈ 6.09 µg/mL)	4 (≈ 6.09 µg/mL)	18	16 (≈ 24.4 µg/mL)	32 (≈ 48.7 µg/mL)	16 (≈ 24.4 µg/mL)	64 (≈ 97.5 µg/mL)	≥ 70	> 128	–	–	–	–	–	–
CC(C)C[C@H](NC(=O)[C@H](CCCNC(=N)N)NC(=O)[C@H](Cc1c[nH]c2ccccc12)NC(=O)[C@H](CCCNC(=N)N)NC(=O)[C@@H](NC(=O)[C@H](Cc1c[nH]c2ccccc12)NC(=O)[C@H](Cc1c[nH]c2ccccc12)NC(=O)[C@H](CCCNC(=N)N)NC(=O)[C@H](CC(C)C)NC(=O)[C@H](CCCNC(=N)N)NC(=O)[C@@H](N)CCCNC(=N)N)[C@@H](C)O)C(=O)N[C@@H](CCCCN)C(N)=O (H-RRLRWWTRWRLK-NH2)	4 (≈ 7.25 µg/mL)	4 (≈ 7.25 µg/mL)	45.2	8 (≈ 14.5 µg/mL)	8 (≈ 14.5 µg/mL)	4 (≈ 7.25 µg/mL)	8 (≈ 14.5 µg/mL)	≥ 70	> 128	–	–	–	–	–	–
CC[C@H](C)[C@H](NC(=O)[C@H](CCCNC(=N)N)NC(=O)[C@H](Cc1c[nH]c2ccccc12)NC(=O)[C@H](CCCNC(=N)N)NC(=O)[C@@H](NC(=O)[C@H](CCCCN)NC(=O)[C@H](Cc1c[nH]c2ccccc12)NC(=O)[C@H](CCCNC(=N)N)NC(=O)[C@@H](NC(=O)[C@H](CCCNC(=N)N)NC(=O)[C@@H](N)Cc1c[nH]c2ccccc12)[C@@H](C)CC)[C@@H](C)O)C(=O)N[C@@H](CCCCN)C(N)=O (H-WRIRWKTRWRIK-NH2)	4 (≈ 7.14 µg/mL)	2 (≈ 3.57 µg/mL)	114	2 (≈ 3.57 µg/mL)	2 (≈ 3.57 µg/mL)	2 (≈ 3.57 µg/mL)	2 (≈ 3.57 µg/mL)	–	> 128	8 (≈ 14.3 µg/mL)	2 (≈ 3.57 µg/mL)	2 (≈ 3.57 µg/mL)	2 (≈ 3.57 µg/mL)	2 (≈ 3.57 µg/mL)	> 90
CC(C)[C@H](NC(=O)[C@H](CCCNC(=N)N)NC(=O)[C@H](Cc1c[nH]c2ccccc12)NC(=O)[C@H](CCCNC(=N)N)NC(=O)[C@@H](NC(=O)[C@H](CCCCN)NC(=O)[C@H](Cc1c[nH]c2ccccc12)NC(=O)[C@H](CCCNC(=N)N)NC(=O)[C@@H](NC(=O)[C@H](CCCNC(=N)N)NC(=O)[C@@H](N)Cc1c[nH]c2ccccc12)C(C)C)[C@@H](C)O)C(=O)N[C@@H](CCCCN)C(N)=O (H-WRVRWKTRWRVK-NH2)	4 (≈ 7.02 µg/mL)	2 (≈ 3.51 µg/mL)	80.8	4 (≈ 7.02 µg/mL)	4 (≈ 7.02 µg/mL)	2 (≈ 3.51 µg/mL)	4 (≈ 7.02 µg/mL)	–	> 128	32 (≈ 56.2 µg/mL)	4 (≈ 7.02 µg/mL)	8 (≈ 14 µg/mL)	8 (≈ 14 µg/mL)	4 (≈ 7.02 µg/mL)	> 90
CC[C@H](C)[C@H](NC(=O)[C@H](CCCCN)NC(=O)[C@H](Cc1c[nH]c2ccccc12)NC(=O)[C@H](CCCCN)NC(=O)[C@@H](NC(=O)[C@H](CCCCN)NC(=O)[C@H](Cc1c[nH]c2ccccc12)NC(=O)[C@H](CCCCN)NC(=O)[C@@H](NC(=O)[C@H](CCCCN)NC(=O)[C@@H](N)Cc1c[nH]c2ccccc12)[C@@H](C)CC)[C@@H](C)CC)C(=O)N[C@@H](CCCCN)C(N)=O (H-WKIKWKIKWKIK-NH2)	2 (≈ 3.37 µg/mL)	2 (≈ 3.37 µg/mL)	32	2 (≈ 3.37 µg/mL)	2 (≈ 3.37 µg/mL)	2 (≈ 3.37 µg/mL)	2 (≈ 3.37 µg/mL)	–	64	4 (≈ 6.74 µg/mL)	2 (≈ 3.37 µg/mL)	1 (≈ 1.68 µg/mL)	2 (≈ 3.37 µg/mL)	2 (≈ 3.37 µg/mL)	> 90
